Experimental data from patent publication US11332472B2, “Substituted piperidines as inhibitors of ubiquitin specific protease 7” (LES LABORATOIRES SERVIER, priority 2017, dated 2022).

What follows are compounds tested against T1, USP7 (Homo sapiens, UniProt Q93009, C315A) (assay: Inhibition of USP7 by Fluorescence Intensity (FLINT) readings, Ubiquitin-Rhodamine-110 substrate). Conditions: 0.25 nM His-His-USP7 (aa208-560, [C315A]); compound 60 minutes at 30° C.; 500 nM Ubiquitin-Rhodamine substrate; 11-point curves.
T1 construct: 0.25 nM His-His-USP7 (aa208-560, [C315A]) was incubated with compound; His-His (N)
T1 sequence (Q93009 208-560 C315A): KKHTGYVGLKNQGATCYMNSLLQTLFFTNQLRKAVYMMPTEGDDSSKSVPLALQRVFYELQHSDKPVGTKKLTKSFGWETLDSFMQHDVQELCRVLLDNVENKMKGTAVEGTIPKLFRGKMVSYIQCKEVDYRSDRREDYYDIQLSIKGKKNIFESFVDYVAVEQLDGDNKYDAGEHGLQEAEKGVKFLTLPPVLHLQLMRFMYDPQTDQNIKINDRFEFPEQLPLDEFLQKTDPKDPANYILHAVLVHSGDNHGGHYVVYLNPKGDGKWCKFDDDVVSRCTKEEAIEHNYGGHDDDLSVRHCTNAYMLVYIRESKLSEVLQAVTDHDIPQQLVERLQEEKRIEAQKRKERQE
Format: biochemical
Method: USP7 activity was measured using Rhodamine-110 c-terminal labelled Ubiquitin as a substrate (Viva Biosciences). Incubation with USP7 results in the release of Rhodamine-110 leading to an increase in fluorescence which can be used in the continuous measurement of USP7 activity.
The USP7 reactions were performed in a 50 μL volume, in 384 well black solid low binding plates (Corning #3575). The reaction buffer consisted of 100 mM Bicine pH 8.0, 0.01% TritonX 100, 1 mM TCEP, and 10% DMSO.
0.25 nM His-His-USP7 (aa208-560, [C315A]) was incubated with compound (final concentration 10% DMSO) for 60 minutes at 30° C. The reaction was then initiated by the addition of 500 nM Ubiquitin-Rhodamine-10 substrate and the plate read every 3 minutes for 21 minutes to measure the release of Rhodamine-110. Fluorescence Intensity (FLINT) readings were measured using a Biomek Neo plate reader (Ex. 485 nm. Em. 535 nm).
The inhibition of increasing doses of compound was expressed as a percentage reduction in kinetic rate compared to the kinetic rates established between ‘DMSO only’ and ‘total inhibition’ controls (no USP7). The inhibitory concentrations that gave a 50% reduction in kinetic rate (IC50) were determined, from 11-point dose response curves, in XL-Fit using a 4-Parameter Logistic Model (Sigmoidal Dose-Response Model).

Row | SMILES | IC50 [nM]
1 | O=C([C@@H]1CCCC[C@H]1n1ccnc1)N1CCC(O)(Cn2cnc3c(ccn3-c3ccccc3)c2=O)CC1 (single isomer, unassigned) [Example 50, 3-[[4-hydroxy-1-[trans-2-imidazol-1-ylcyclohexanecarbonyl]-4-piperidyl]methyl]-7-phenyl-pyrrolo[2,3-d]pyrimidin-4-one] | 570
2 | CC(C)n1ccc2c(=O)n(CC3(O)CCN(C(=O)[C@@H]4CCC(F)(F)C[C@H]4c4ccccc4)CC3)cnc21 (single isomer, unassigned) [Example 113, 3-[[1-[trans-4,4-difluoro-2-phenyl-cyclohexanecarbonyl]-4-hydroxy-4-piperidyl]methyl]-7-isopropyl-pyrrolo[2,3-d]pyrimidin-4-one] | 456
3 | Cc1cc([C@@H]2CC(F)(F)CC[C@H]2C(=O)N2CCC(O)(Cn3cnc4c(-c5ccccc5)scc4c3=O)CC2)cs1 (relative stereo) [Example 90, 3-[[1-[trans-4,4-difluoro-2-(S-methyl-3-thienyl)cyclohexanecarbonyl]-4-hydroxy-4-piperidyl]methyl]-7-phenyl-thieno[3,4-d]pyrimidin-4-one] | 2920
4 | O=C([C@@H]1CCO[C@H]1c1ccccc1)N1CCC(O)(Cn2cnc3c(ccn3-c3ccccc3)c2=O)CC1 (relative stereo) [Example 46, 3-[[4-hydroxy-1-[trans-2-phenyltetrahydrofuran-3-carbonyl]-4-piperidyl]methyl]-7-phenyl-pyrrolo[2,3-d]pyrimidin-4-one] | 685
5 | O=C([C@@H]1CC(F)(F)CC[C@H]1c1ccccc1)N1CCC(O)(Cn2cnc3c(ccn3-c3ccccc3)c2=O)CC1 (single isomer, unassigned) [Example 31, 3-[[1-[trans-5,5-difluoro-2-phenyl-cyclohexanecarbonyl]-4-hydroxy-4-piperidyl]methyl]-7-phenyl-pyrrolo[2,3-d]pyrimidin-4-one] | 2760
6 | O=C([C@@H]1CCCC[C@H]1c1ccsc1)N1CCC(O)(Cn2cnc3cccnc3c2=O)CC1 (relative stereo) [Example 1, 3-[[4-hydroxy-1-[trans-2-(3-thienyl)cyclohexanecarbonyl]-4-piperidyl]methyl]pyrido[3,2-d]pyrimidin-4-one] | 916
7 | COc1ccc(-n2ccc3c(=O)n(CC4(O)CCN(C(=O)C5CCCCN5c5ccccc5)CC4)cnc32)cc1 (stereo not drawn) [Example 10, 3-[[4-hydroxy-1-(1-phenylpiperidine-2-carbonyl)-4-piperidyl]methyl]-7-(4-methoxyphenyl)pyrrolo[2,3-d]pyrimidin-4-one] | 425
8 | COc1ccc(-n2ccc3c(=O)n(CC4(O)CCN(C(=O)[C@@H]5CCCO[C@H]5c5ccccc5)CC4)cnc32)cc1 (single isomer, unassigned) [Example 44, 3-[[4-hydroxy-1-[trans-2-phenyltetrahydropyran-3-carbonyl]-4-piperidyl]methyl]-7-(4-methoxyphenyl)pyrrolo[2,3-d]pyrimidin-4-one] | 2750
9 | O=C([C@@H]1CCCC[C@H]1c1ccccc1)N1CCC(O)(Cn2cnc3c(ccn3Cc3cccnc3)c2=O)CC1 (relative stereo) [Example 109, 3-[[4-hydroxy-1-(trans-2-phenylcyclohexanecarbonyl)-4-piperidyl]methyl]-7-(3-pyridylmethyl)pyrrolo[2,3-d]pyrimidin-4-one] | 1010
10 | O=C([C@@H]1CCCC[C@H]1c1ccccc1)N1CCC(O)(Cn2cnc3c(ccn3Cc3ccsc3)c2=O)CC1 (relative stereo) [Example 110, 3-[[4-hydroxy-1-(trans-2-phenylcyclohexanecarbonyl)-4-piperidyl]methyl]-7-(3-thienylmethyl)pyrrolo[2,3-d]pyrimidin-4-one] | 450
11 | O=C([C@@H]1CCC(F)(F)C[C@H]1c1cocn1)N1CCC(O)(Cn2cnc3c(-c4ccc(CO)cc4)scc3c2=O)CC1 (relative stereo) [Example 77, 3-[[1-[trans-4,4-difluoro-2-oxazol-4-yl-cyclohexanecarbonyl]-4-hydroxy-4-piperidyl]methyl]-7-[4-(hydroxymethyl)phenyl]thieno[3,4-d]pyrimidin-4-one] | 591
12 | COc1ccc(-n2ccc3c(=O)n(CC4(O)CCN(C(=O)[C@@H]5OCCO[C@@H]5c5ccccc5)CC4)cnc32)cc1 (single isomer, unassigned) [Example 7, 3-[[4-hydroxy-1-[cis-3-phenyl-1,4-dioxane-2-carbonyl]-4-piperidyl]methyl]-7-(4 methoxyphenyl)pyrrolo[2,3-d]pyrimidin-4-one] | 6500
13 | O=C([C@@H]1CC(F)(F)CC[C@H]1c1ccccc1)N1CCC(O)(Cn2cnc3c(-c4ccccc4)scc3c2=O)CC1 (single isomer, unassigned) [Example 78, 3-[[1-[trans-5,5-difluoro-2-phenyl-cyclohexanecarbonyl]-4-hydroxy-4-piperidyl]methyl]-7-phenyl-thieno[3,4-d]pyrimidin-4-one] | 10300
14 | COc1ccc(-n2ccc3c(=O)n(CC4(O)CCN(C(=O)[C@@H]5CC(F)(F)CC[C@H]5c5ccccc5)CC4)cnc32)cc1 (single isomer, unassigned) [Example 29, 3-[[1-[trans-5,5-difluoro-2-phenyl-cyclohexanecarbonyl]-4-hydroxy-4-piperidyl]methyl]-7-(4-methoxyphenyl)pyrrolo[2,3-d]pyrimidin-4-one] | 612
15 | O=C([C@@H]1CCC(F)(F)C[C@H]1c1cnco1)N1CCC(O)(Cn2cnc3c(Cl)scc3c2=O)CC1 (relative stereo) [Example 76, 7-chloro-3-[[1-[trans-4,4-difluoro-2-oxazol-5-yl-cyclohexanecarbonyl]-4-hydroxy-4-piperidyl]methyl]thieno[3,4-d]pyrimidin-4-one] | 6640

Compounds with a lower IC50, results first:

Row | IC50 [nM] | SMILES
16 | 351 | COc1ccc(CNc2ccc3ncn(CC4(O)CCN(C(=O)[C@@H]5CCCC[C@H]5c5ccccc5)CC4)c(=O)c3n2)cc1 (relative stereo) [Example 94, 3-[[4-hydroxy-1-(trans-2-phenylcyclohexanecarbonyl)-4-piperidyl]methyl]-6-[(4-methoxyphenyl)methylamino]pyrido[3,2-d]pyrimidin-4-one]
17 | 268 | CC1(C)CC[C@@H](C(=O)N2CCC(O)(Cn3cnc4c(-c5ccccc5)scc4c3=O)CC2)[C@H](c2ccccc2)C1 (single isomer, unassigned) [Example 99, 3-[[1-(trans-4,4-dimethyl-2-phenyl-cyclohexanecarbonyl)-4-hydroxy-4-piperidyl]methyl]-7-phenyl-thieno[3,4-d]pyrimidin-4-one]
18 | 162 | O=C([C@@H]1CCC(F)(F)C[C@H]1c1cccs1)N1CCC(O)(Cn2cnc3c(ccn3-c3ccccc3)c2=O)CC1 (relative stereo) [Example 71, 3-[[1-[trans-4,4-difluoro-2-(2-thienyl)cyclohexanecarbonyl]-4-hydroxy-4-piperidyl]methyl]-7-phenyl-pyrrolo[2,3-d]pyrimidin-4-one]
19 | 137 | O=C([C@@H]1CCCC[C@H]1c1ccccc1)N1CCC(O)(Cn2cnc3sccc3c2=O)CC1 (relative stereo) [Example 91, 3-[[4-hydroxy-1-(trans-2-phenylcyclohexanecarbonyl)-4-piperidyl]methyl]thieno[2,3-d]pyrimidin-4-one]
20 | 125 | O=C(Nc1ccc2ncn(CC3(O)CCN(C(=O)[C@@H]4CCCC[C@H]4c4ccccc4)CC3)c(=O)c2n1)C1CCCC1O (relative stereo) [Example 103, 2-hydroxy-N-[3-[[4-hydroxy-1-(trans-2-phenylcyclohexanecarbonyl)-4-piperidyl]methyl]4-oxo-pyrido[3,2-d]pyrimidin-6-yl]cyclopentanecarboxamide]
21 | 125 | O=C([C@@H]1CCC(F)(F)C[C@H]1c1ccco1)N1CCC(O)(Cn2cnc3c(-c4ccccc4)scc3c2=O)CC1 (single isomer, unassigned) [Example 86, 3-[[1-[trans-4,4-difluoro-2-(2-furyl)cyclohexanecarbonyl]-4-hydroxy-4-piperidyl]methyl]-7-phenyl-thieno[3,4-d]pyrimidin-4-one]
22 | 113 | O=C(C1CCCC(O)C1c1ccccc1)N1CCC(O)(Cn2cnc3c(ccn3-c3ccccc3)c2=O)CC1 (single isomer, unassigned) [Example 55, (1S,2S,3R or 1R,2R,3S)-3-[[4-hydroxy-1-[3-hydroxy-2-phenyl-cyclohexanecarbonyl]-4-piperidyl]methyl]-7-phenyl-pyrrolo[2,3-d]pyrimidin-4-one]
23 | 102 | COc1ccc(C(=O)Nc2ccc3ncn(CC4(O)CCN(C(=O)[C@@H]5CCCC[C@H]5c5ccccc5)CC4)c(=O)c3n2)cc1 (relative stereo) [Example 107, N-[3-[[4-hydroxy-1-(trans-2-phenylcyclohexanecarbonyl)-4-piperidyl]methyl]-4-oxo-pyrido[3,2-d]pyrimidin-6-yl]-4-methoxy-benzamide]
24 | 21.7 | O=C(Cc1cccc(O)c1)Nc1ccc2ncn(CC3(O)CCN(C(=O)[C@@H]4CCCC[C@H]4c4ccccc4)CC3)c(=O)c2n1 (relative stereo) [Example 104, 2-(3-hydroxyphenyl)-N-[3-[[4-hydroxy-1-(trans-2-phenylcyclohexanecarbonyl)-4-piperidyl]methyl]-4-oxo-pyrido[3,2-d]pyrimidin-6-yl]acetamide]
